According to US5677419A, “Cyclic vasoactive peptide analogs” (Hoffmann-La Roche Inc., priority 1994, dated 1997):
Where a SMILES comes first, the peptide text is derived from it. Bridges are numbered along the chain shown (N, C = ends). [ ]: non-standard residue; d: D form. Phe(4-NH2) = Nc1ccc(C[C@H](N)C(=O)O)cc1; Nle = CCCC[C@H](N)C(=O)O

Legend:
[1] = system: guinea pig tracheal smooth muscle; assay: Tracheal relaxant activity of VIP analogs on isolated guinea pig tracheal rings; assay type: cell-based; conditions: cumulative concentration response, relaxation as % of maximum response to VIP (10^-6 M=100%), three tissues pooled, linear regression
Summary of the method: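 Male guinea pig tracheal rings under 1.5 g resting tension in Krebs at 37° C, 95% O2/5% CO2, isometric tension. Cumulative concentration-response curves; relaxation as % of response to 10^-6 M VIP added at end; three tissues pooled, EC50 by linear regression.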

[2] = system: guinea pigs; assay: In vivo bronchodilator activity by tracheal instillation against histamine challenge; set-up: species or system guinea pig; conditions: anesthetized male guinea pigs, inhibition of histamine (i.v.)-induced rise in tracheal pressure
Summary of the method: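 Urethane-anaesthetised male Hartley guinea pigs (400-600 g) received compound in water by intratracheal instillation, then were paralysed, ventilated and challenged with histamine […] i.v. Tracheal pressure change gave % inhibition (≥3 animals/group); ED50 from log dose-response; duration as time until inhibition fell to 40%.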

Row | Compound | EC50 [1] | Bronchodilator activity of VIP analogs in guinea pigs, ED50 [2]
1 | CCCC[C@H](NC(=O)[C@H](CCC(N)=O)NC(=O)[C@H](CCCCN)NC(=O)[C@H](CCCNC(=N)N)NC(=O)[C@H](CC(C)C)NC(=O)[C@H](CCCCN)NC(=O)[C@@H](NC(=O)[C@H](Cc1ccc(N)cc1)NC(=O)[C@H](CC(N)=O)NC(=O)[C@H](CC(=O)O)NC(=O)[C@@H](NC(=O)[C@H](Cc1ccccc1)NC(=O)[C@@H](NC(=O)[C@H](C)NC(=O)[C@H](CC(=O)O)NC(=O)[C@H](CO)NC(=O)[C@H](Cc1c[nH]cn1)NC(C)=O)C(C)C)[C@@H](C)O)[C@@H](C)O)C(=O)N[C@@H](C)C(=O)N[C@@H](C)C(=O)N[C@@H](CCCCN)C(=O)N[C@H]1CCCCNC(=O)C[C@@H](C(=O)N[C@H](C(=O)N[C@@H](CC(C)C)C(=O)N[C@H](C(N)=O)[C@@H](C)O)C(C)C)NC(=O)[C@H](CC(N)=O)NC(=O)[C@H](CC(C)C)NC(=O)[C@H](Cc2ccc(O)cc2)NC1=O [SEQ ID NO:54, Ac-[p-NH2 -Phe^10,Lys^12,Nle^17,Ala^19,Asp^25,Val^26,Thr^28]-VIP cyclo (Lys^21 →Asp^25)] (Ac-HSDAVFTDN[Phe(4-NH2)]TKLRKQ[Nle]AAKKYLNDVLT-NH2; lactam 21-25) | 0.96 nM | 0.35 μg
2 | CCCC[C@H](NC(=O)[C@H](CCC(N)=O)NC(=O)[C@H](CCCCN)NC(=O)[C@H](CCCNC(=N)N)NC(=O)[C@H](CC(C)C)NC(=O)[C@H](CCCCN)NC(=O)[C@@H](NC(=O)[C@H](Cc1ccc(O)cc1)NC(=O)[C@H](CC(N)=O)NC(=O)[C@H](CC(=O)O)NC(=O)[C@@H](NC(=O)[C@H](Cc1ccccc1)NC(=O)[C@@H](NC(=O)[C@H](C)NC(=O)[C@H](CC(=O)O)NC(=O)[C@H](CO)NC(=O)[C@H](Cc1c[nH]cn1)NC(C)=O)C(C)C)[C@@H](C)O)[C@@H](C)O)C(=O)N[C@@H](C)C(=O)N[C@@H](C)C(=O)N[C@@H](CCCCN)C(=O)N[C@H]1CCCCNC(=O)C[C@@H](C(=O)N[C@H](C(=O)N[C@@H](CC(C)C)C(=O)N[C@H](C(N)=O)[C@@H](C)O)C(C)C)NC(=O)[C@H](CC(N)=O)NC(=O)[C@H](CC(C)C)NC(=O)[C@H](Cc2ccc(O)cc2)NC1=O [SEQ ID NO:29, Ac-[Lys^12,Nle^17,Ala^19,Asp^25,Val^26,Thr^28]-VIP cyclo (Lys^21 →Asp^25)] (Ac-HSDAVFTDNYTKLRKQ[Nle]AAKKYLNDVLT-NH2; lactam 21-25) | 0.7 nM | 0.34 μg
3 | CCCC[C@H](NC(=O)[C@H](CCC(N)=O)NC(=O)[C@H](CCCCN)NC(=O)[C@H](CCCNC(=N)N)NC(=O)[C@H](CC(C)C)NC(=O)[C@H](CCCCN)NC(=O)[C@@H](NC(=O)[C@H](Cc1ccc(O)cc1)NC(=O)[C@H](CC(N)=O)NC(=O)[C@H](CCC(=O)O)NC(=O)[C@@H](NC(=O)[C@H](Cc1ccccc1)NC(=O)[C@@H](NC(=O)[C@H](C)NC(=O)[C@H](CC(=O)O)NC(=O)[C@H](C)NC(=O)[C@H](Cc1c[nH]cn1)NC(C)=O)C(C)C)[C@@H](C)O)[C@@H](C)O)C(=O)N[C@@H](C)C(=O)N[C@H](C(=O)N[C@@H](CCCCN)C(=O)N[C@H]1CCCCNC(=O)C[C@@H](C(=O)N[C@@H](CC(C)C)C(=O)N[C@@H](CCCCN)C(=O)N[C@@H](CCCCN)C(=O)NCC(=O)NCC(=O)N[C@H](C(N)=O)[C@@H](C)O)NC(=O)[C@H](CC(N)=O)NC(=O)[C@H](CC(C)C)NC(=O)[C@H](Cc2ccc(O)cc2)NC1=O)C(C)C [SEQ ID NO:67, Ac-[Ala^2,Glu^8,Lys^12,Nle^17,Asp^25,Leu^26,Lys^27,28,Gly^29,30,Thr^31]-VIP cyclo (Lys^21 →Asp^25)] (Ac-HADAVFTENYTKLRKQ[Nle]AVKKYLNDLKKGGT-NH2; lactam 21-25) | 0.19 nM | 0.077 μg
4 | CCCC[C@H](NC(=O)[C@H](CCC(N)=O)NC(=O)[C@H](CCCCN)NC(=O)[C@H](CCCNC(=N)N)NC(=O)[C@H](CC(C)C)NC(=O)[C@H](CCCCN)NC(=O)[C@@H](NC(=O)[C@H](Cc1ccc(O)cc1)NC(=O)[C@H](CC(N)=O)NC(=O)[C@H](CC(=O)O)NC(=O)[C@@H](NC(=O)[C@H](Cc1ccccc1)NC(=O)[C@@H](NC(=O)[C@H](C)NC(=O)[C@H](CC(=O)O)NC(=O)[C@H](CO)NC(=O)[C@H](Cc1c[nH]cn1)NC(C)=O)C(C)C)[C@@H](C)O)[C@@H](C)O)C(=O)N[C@@H](C)C(=O)N[C@@H](C)C(=O)N[C@@H](CCCCN)C(=O)N[C@H]1CCCCNC(=O)C[C@@H](C(=O)N[C@@H](CC(C)C)C(=O)N[C@@H](CCCCN)C(=O)N[C@@H](CCCCN)C(=O)N[C@@H](C)C(=O)N[C@@H](C)C(=O)N[C@@H](C)C(N)=O)NC(=O)[C@H](CC(N)=O)NC(=O)[C@H](CC(C)C)NC(=O)[C@H](Cc2ccc(O)cc2)NC1=O [SEQ ID NO:69, Ac-[Lys^12,Nle^17,Ala^19,Asp^25,Leu^26,Lys^27,28,Ala^29-31]-VIP cyclo (Lys^21 →Asp^25)] (Ac-HSDAVFTDNYTKLRKQ[Nle]AAKKYLNDLKKAAA-NH2; lactam 21-25) | 0.42 nM | 0.04 μg
5 | CCCC[C@H](NC(=O)[C@H](CCC(N)=O)NC(=O)[C@H](CCCCN)NC(=O)[C@H](CCCNC(=N)N)NC(=O)[C@H](CC(C)C)NC(=O)[C@H](CCCCN)NC(=O)[C@@H](NC(=O)[C@H](Cc1ccc(N)cc1)NC(=O)[C@H](CC(N)=O)NC(=O)[C@H](CCC(=O)O)NC(=O)[C@@H](NC(=O)[C@H](Cc1ccccc1)NC(=O)[C@@H](NC(=O)[C@H](C)NC(=O)[C@H](CC(=O)O)NC(=O)[C@H](CO)NC(=O)[C@H](Cc1c[nH]cn1)NC(C)=O)C(C)C)[C@@H](C)O)[C@@H](C)O)C(=O)N[C@@H](C)C(=O)N[C@@H](C)C(=O)N[C@@H](CCCCN)C(=O)N[C@H]1CCCCNC(=O)C[C@@H](C(=O)N[C@@H](CC(C)C)C(=O)N[C@@H](CCCCN)C(=O)N[C@@H](CCCCN)C(N)=O)NC(=O)[C@H](CC(N)=O)NC(=O)[C@H](CC(C)C)NC(=O)[C@H](Cc2ccc(O)cc2)NC1=O [SEQ ID NO:47, Ac-[Glu^8,p-NH2 -Phe^10,Lys^12,Nle^17,Ala^19,Asp^25,Leu^26,Lys^27,28]-VIP cyclo (Lys^21 →Asp^25)] (Ac-HSDAVFTEN[Phe(4-NH2)]TKLRKQ[Nle]AAKKYLNDLKK-NH2; lactam 21-25) | 0.32 nM | 0.075 μg
6 | CCCC[C@H](NC(=O)[C@H](C)NC(=O)[C@H](CCCCN)NC(=O)[C@H](CCCNC(=N)N)NC(=O)[C@H](CC(C)C)NC(=O)[C@H](CCCCN)NC(=O)[C@@H](NC(=O)[C@H](Cc1ccc(O)cc1)NC(=O)[C@H](CC(N)=O)NC(=O)[C@H](C)NC(=O)[C@@H](NC(=O)[C@H](Cc1ccccc1)NC(=O)[C@@H](NC(=O)[C@H](C)NC(=O)[C@H](CC(=O)O)NC(=O)[C@H](CO)NC(=O)[C@H](Cc1c[nH]cn1)NC(C)=O)C(C)C)[C@@H](C)O)[C@@H](C)O)C(=O)N[C@@H](C)C(=O)N[C@@H](C)C(=O)N[C@@H](CCCCN)C(=O)N[C@H]1CCCCNC(=O)C[C@@H](C(=O)N[C@@H](CC(C)C)C(=O)N[C@@H](CCCCN)C(=O)N[C@@H](CCCCN)C(N)=O)NC(=O)[C@H](C)NC(=O)[C@H](CC(C)C)NC(=O)[C@H](Cc2ccc(O)cc2)NC1=O [SEQ ID NO:61, Ac-[Ala^8,Lys^12,Ala^16,Nle^17,Ala^19,Ala^24,Asp^25,Leu^26,Lys^27,28]-VIP cyclo (Lys^21 →Asp^25)] (Ac-HSDAVFTANYTKLRKA[Nle]AAKKYLADLKK-NH2; lactam 21-25) | 2.4 nM | 0.045 μg
7 | CC(=O)N[C@@H](Cc1c[nH]cn1)C(=O)N[C@@H](CO)C(=O)N[C@@H](CC(=O)O)C(=O)N[C@@H](C)C(=O)N[C@H](C(=O)N[C@@H](Cc1ccccc1)C(=O)N[C@H](C(=O)N[C@@H](CCC(=O)O)C(=O)N[C@@H](CC(N)=O)C(=O)N[C@@H](Cc1ccc(O)cc1)C(=O)N[C@H](C(=O)N[C@@H](CCCCN)C(=O)N[C@@H](CC(C)C)C(=O)N[C@@H](CCCNC(=N)N)C(=O)N[C@@H](CCCCN)C(=O)N[C@@H](C)C(=O)N[C@@H](C)C(=O)N[C@@H](C)C(=O)N[C@@H](C)C(=O)N[C@@H](CCCCN)C(=O)N[C@H]1CCCCNC(=O)C[C@@H](C(=O)N[C@@H](CC(C)C)C(=O)N[C@@H](CCCCN)C(=O)N[C@@H](CCCCN)C(N)=O)NC(=O)[C@H](C)NC(=O)[C@H](CC(C)C)NC(=O)[C@H](Cc2ccc(O)cc2)NC1=O)[C@@H](C)O)[C@@H](C)O)C(C)C [SEQ ID NO:64, Ac-[Glu^8,Lys^12,Ala^16,17,19,Ala^24,Asp^25,Leu^26,Lys^27,28]-VIP cyclo (Lys^21 →Asp^25)] (Ac-HSDAVFTENYTKLRKAAAAKKYLADLKK-NH2; lactam 21-25) | 0.22 nM | 0.13 μg
8 | CC(=O)N[C@@H](Cc1c[nH]cn1)C(=O)N[C@@H](CO)C(=O)N[C@@H](CC(=O)O)C(=O)N[C@@H](C)C(=O)N[C@H](C(=O)N[C@@H](Cc1ccccc1)C(=O)N[C@H](C(=O)N[C@@H](CCC(=O)O)C(=O)N[C@@H](CC(N)=O)C(=O)N[C@@H](Cc1ccc(O)cc1)C(=O)N[C@H](C(=O)N[C@@H](CCCCN)C(=O)N[C@@H](CC(C)C)C(=O)N[C@@H](CCCNC(=N)N)C(=O)N[C@@H](CCCCN)C(=O)N[C@@H](C)C(=O)N[C@@H](C)C(=O)N[C@@H](C)C(=O)N[C@@H](C)C(=O)N[C@@H](CCCCN)C(=O)N[C@H]1CCCCNC(=O)C[C@@H](C(=O)N[C@@H](CC(C)C)C(=O)N[C@@H](CCCCN)C(=O)N[C@@H](CCCCN)C(N)=O)NC(=O)[C@H](CC(N)=O)NC(=O)[C@H](CC(C)C)NC(=O)[C@H](Cc2ccc(O)cc2)NC1=O)[C@@H](C)O)[C@@H](C)O)C(C)C [SEQ ID NO:60, Ac-[Glu^8,Lys^12,Ala^16,17,19,Asp^25,Leu^26,Lys^27,28]-VIP cyclo (Lys^21 →Asp^25)] (Ac-HSDAVFTENYTKLRKAAAAKKYLNDLKK-NH2; lactam 21-25) | 0.26 nM | 0.17 μg
